Experimental findings from patent publication US8394825B2, “Compound” (Sterix Limited, priority 2007, dated 2013) are described below.

For this assay, the system named is DU145 cells. Nature of the assay: Antiproliferative assay in DU145 cells, WST-1 cell proliferation assay, 96 hours (GI50). The assay is classed as cell-based. As to conditions: 96 hours post-treatment, triplicate, read-out: DU-145 GI50. Here is the method:
Antiproliferative assays. DU145 cells were seeded into 96 well microtiter plates (5000 cells/well) and treated with […] of compounds or with vehicle control. At 96 hours post-treatment, live cell counts were determined by WST-1 cell proliferation assay (Roche, Penzberg, Germany), as per manufacturer's instructions. Viability results were expressed as a percentage of mean control values resulting in the calculation of the 50% growth inhibition (GI50). All experiments were performed in triplicate.
For orientation: Tetrazolium dyes change colour on reduction, which living cells bring about.

SMILES strings stand for the structures.

As to `COc1cc2c(cc1OS(N)(=O)=O)CCN(Cc1cccc(C)c1)C2` [compound 77, 7-Methoxy-2-(3-methylbenzyl)-6-O-sulfamoyl-1,2,3,4-tetrahydroisoquinoline], the GI50 (usually the concentration at which growth is held to half of that of the control) lay in the range of 10 to 50 µM.

Consider `COc1cc2c(cc1OS(N)(=O)=O)CCN(Cc1cccc(Oc3ccccc3)c1)C2` [compound 78, 7-Methoxy-2-(3-phenoxybenzyl)-6-O-sulfamoyl-1,2,3,4-tetrahydroisoquinoline], for which the GI50 was in the range of 10 to 50 µM.

Regarding `COc1cc2c(cc1OS(N)(=O)=O)CCN(Cc1cccc(OS(N)(=O)=O)c1)C2` [compound 79, 7-Methoxy-2-(3-(O-sulfamoyl)benzyl)-6-O-sulfamoyl-1,2,3,4-tetrahydroisoquinoline], the GI50 lay in the range of 10 to 50 µM. For the compound `CCOc1cccc(CN2CCc3cc(OS(N)(=O)=O)c(OC)cc3C2)c1` [compound 80, 2-(3-Ethoxybenzyl)-7-methoxy-6-O-sulfamoyl-1,2,3,4-tetrahydroisoquinoline], the GI50 is < 10 µM. Consider `COc1cc2c(cc1OS(N)(=O)=O)CCN(Cc1cccc(C(C)=O)c1)C2` [compound 82, 2-(3-Acetylbenzyl)-7-methoxy-6-O-sulfamoyl-1,2,3,4-tetrahydroisoquinoline], for which the GI50 is < 10 µM.

In the case of `COc1cc2c(cc1OS(N)(=O)=O)CCN(Cc1cccc(NC(C)=O)c1)C2` [compound 85, 2-(3-Acetamidobenzyl)-7-methoxy-6-O-sulfamoyl-1,2,3,4-tetrahydroisoquinoline], the GI50 was > 100 µM.

Consider `COc1cc2c(cc1OS(N)(=O)=O)CCN(Cc1cccc(OC(C)=O)c1)C2` [compound 87, 2-(3-Acetoxybenzyl)-7-methoxy-6-O-sulfamoyl-1,2,3,4-tetrahydroisoquinoline], for which the GI50 was in the range of 50 to 100 µM.

For `COc1cc2c(cc1OS(N)(=O)=O)CCN(Cc1cc(OC)c(OC)c(OC)c1)C2` [compound 90, 7-Methoxy-2-(3,4,5-trimethoxybenzyl)-6-O-sulfamoyl-1,2,3,4-tetrahydroisoquinoline], the GI50 was < 10 µM. Next, `COc1cc2c(cc1OS(N)(=O)=O)CCN(Cc1cccc(OC)c1OC)C2` [compound 91, 7-Methoxy-2-(2,3-dimethoxybenzyl)-6-O-sulfamoyl-1,2,3,4-tetrahydroisoquinoline]: < 10 µM; `COc1ccc(CN2CCc3cc(OS(N)(=O)=O)c(OC)cc3C2)cc1OC` [compound 92, 7-Methoxy-2-(3,4-dimethoxybenzyl)-6-O-sulfamoyl-1,2,3,4-tetrahydroisoquinoline]: < 10 µM. In the case of `COc1cc2c(cc1OS(N)(=O)=O)CCN(Cc1ccc(OC)c(OC)c1OC)C2` [compound 93, 7-Methoxy-2-(2,3,4-trimethoxybenzyl)-6-O-sulfamoyl-1,2,3,4-tetrahydroisoquinoline], the GI50 lay within 10 to 50 µM. Next, `COc1ccc(OC)c(CN2CCc3cc(OS(N)(=O)=O)c(OC)cc3C2)c1` [compound 94, 7-Methoxy-2-(2,5-dimethoxybenzyl)-6-O-sulfamoyl-1,2,3,4-tetrahydroisoquinoline]: < 10 µM. As for `COc1cc(OC)c(OC)cc1CN1CCc2cc(OS(N)(=O)=O)c(OC)cc2C1` [compound 95, 7-Methoxy-2-(2,4,5-trimethoxybenzyl)-6-O-sulfamoyl-1,2,3,4-tetrahydroisoquinoline], the GI50 was < 10 µM.

With `COc1cc2c(cc1OS(N)(=O)=O)CCN(Cc1cccc(O)c1)C2` [compound 97, 2-(3-Hydroxybenzyl)-7-methoxy-6-O-sulfamoyl-1,2,3,4-tetrahydroisoquinoline], the GI50 was in the range of 50 to 100 µM. Turning to `COc1cc2c(cc1OS(N)(=O)=O)CCN(Cc1ccc(C#N)cc1)C2` [compound 99, 2-(4-Cyanobenzyl)-7-methoxy-6-O-sulfamoyl-1,2,3,4-tetrahydroisoquinoline], the GI50 was in the range of 50 to 100 µM. Next, `COc1cc2c(cc1OS(N)(=O)=O)CCN(Cc1cccc([N+](=O)[O-])c1)C2` [compound 100, 7-Methoxy-2-(3-nitrobenzyl)-6-O-sulfamoyl-1,2,3,4-tetrahydroisoquinoline]: < 10 µM.
